Measurements: patent US8772303B2, “Pharmaceutical formulation” (Glaxo Group Limited, priority 2004, dated 2014)

Assays:
[1] = Measurement of the substituted uracil formula (II) in simulated gastric fluid (hydrolysis of active); assay type: physicochemical; conditions: for Levels of Formula (II) in simulated gastric fluid: 60 mg active in 250 mL SGF, 37° C., 50 rpm
Description: Compounds of Formula (I) hydrolyse, particularly under conditions where pH corresponds to that typically prevailing in the human stomach, to form a thiol and a uracil in a 1:1 stoichiometric ratio. The thiol has a smell characteristic of compounds of its class, the intensity of the smell increasing with the concentration of the thiol. Thus the concentration of the uracil is a surrogate marker for the intensity of the smell.
To simulate in vitro the effect of enteric-coating on the propensity of 1-(N-(2-(Diethylamino)ethyl)-N-(4-(4-trifluoromethylphenyl)benzyl)aminocarbonylmethyl)-2-(4-fluorobenzyl)thio-5,6-trimethylenepyrimidin-4-one as the free base (called “active” in this example) to give rise to abnormal smells in vivo, a two-armed study was performed. In both arms, 60 mg of active was immersed in 250 mL simulated gastric fluid held at 37° C. and stirred at 50 rpm in a USP2 dissolution apparatus. In one arm, the active was present as an enteric-coated tablet. In the other arm, active was present as the unformulated drug substance, which is chemically equivalent to a tablet lacking an enteric coat.
The uracil produced by the active is N-[2-(diethylamino)ethyl]-2-(2,4-dioxo-2,3,4,5,6,7-hexahydro-1H-cyclopenta[d]pyrimidin-1-yl)-N-{[4′-(trifluoromethyl)-4-biphenylyl]methyl}acetamide, as shown in Formula (II): […]
In both arms, the level of formula (II) in solution was monitored over time, by withdrawing a small sample of the fluid and comparing its LC-MS response to that of a matrix-matched external standard (i.e. synthetic formula (II)).

[2] = Measurement of the substituted uracil formula (II) in simulated intestinal fluid (hydrolysis of active); assay type: physicochemical; conditions: for Levels of formula (II) in simulated intestinal fluid: 80 mg active in 250 mL fasted-state SIF, 37° C., 50 rpm
Method: To simulate in vitro the propensity of active tablets to give rise to abnormal smells in the human intestine, active equivalent to 80 mg was immersed in 250 mL simulated intestinal fluid (corresponding to the fasted state in humans) held at 37° C. and stirred at 50 rpm in a USP2 dissolution apparatus. This is chemically equivalent to a tablet whose enteric coat has been destroyed and whose core has subsequently disintegrated.
The level of formula (II) in solution was monitored over time, by withdrawing a small sample of the fluid and comparing its LC-MS response to that of a matrix-matched external standard (i.e. synthetic formula (II)).

SMILES: CCN(CC)CCN(Cc1ccc(-c2ccc(C(F)(F)F)cc2)cc1)C(=O)Cn1c(SCc2ccc(F)cc2)nc(=O)c2c1CCC2 [Unformulated drug, 1-(N-(2-(Diethylamino)ethyl)-N-(4-(4-trifluoromethylphenyl)benzyl)aminocarbonylmethyl)-2-(4-fluorobenzyl)thio-5,6-trimethylenepyrimidin-4-one]
- Levels of Formula (II) in simulated gastric fluid ([1]; 0 min, QL 1.71 ng/mL): 6270 ng/mL
- Levels of Formula (II) in simulated gastric fluid ([1]; 5 min, QL 1.71 ng/mL): 6570 ng/mL
- Levels of Formula (II) in simulated gastric fluid ([1]; 10 min, QL 1.71 ng/mL): 7180 ng/mL
- Levels of Formula (II) in simulated gastric fluid ([1]; 15 min, QL 1.71 ng/mL): 7970 ng/mL
- Levels of Formula (II) in simulated gastric fluid ([1]; 30 min, QL 1.71 ng/mL): 9270 ng/mL
- Levels of Formula (II) in simulated gastric fluid ([1]; 45 min, QL 1.71 ng/mL): 11450 ng/mL
- Levels of Formula (II) in simulated gastric fluid ([1]; 60 min): 13110 ng/mL
- Levels of Formula (II) in simulated gastric fluid ([1]; 120 min): 18940 ng/mL
- Levels of Formula (II) in simulated gastric fluid ([1]; 240 min): 25250 ng/mL
- Levels of Formula (II) in simulated gastric fluid ([1]; 480 min): 62910 ng/mL
- Levels of Formula (II) in simulated gastric fluid ([1]; 1440 min): 135600 ng/mL
- Reduction by the enteric coat of the level of formula (II) formed by active ([1]; simulated gastric fluid, enteric coated tablet versus unformulated drug): 4 orders of magnitude
- Levels of formula (II) in simulated intestinal fluid ([2]; 480 min): 2.99 ng/mL
- Levels of formula (II) in simulated intestinal fluid ([2]; 1440 min): 8.58 ng/mL
- Propensity to form formula (II) in simulated intestinal fluid ([2]; in contrast to behaviour in simulated gastric fluid): low propensity
